# Assay results from patent US20220047538A1, “TUFT CELL SPECIFICATION IN INFLAMMATORY ILEITIS” (VANDERBILT UNIVERSITY, priority 2019, published 2022).
# Read-outs that look alike come from different tables or passages of the source.
# Columns and labels:
# [1] = system: TNF^ΔARE/+ model of Crohn's-like ileitis; settings: TNFΔARE/+ ileum
# Experimental: Mouse Experiments: All animal protocols were approved by the Vanderbilt University Animal Care and Use Committee and in accordance with NIH guidelines. Lrig1^CreERT2 and Atoh1^flox/flox strains, each in a C57BL/6 background, were purchased from Jackson Laboratory to generate Lrig1^CreERT2/+; Atoh1^fl/fl (AtohKO) animals Cre recombinase activity was induced in two- or three-month-old Lrig1^CreERT2/+; Atoh1^fl/fl and Lrig1^+/+; Atoh1^fl/fl males via intraperitoneal administration of 2 mg of tamoxifen (Sigma-Aldrich) for four consecutive days. Mice were sacrificed and tissues were harvested twenty-one days after the first injection. TNF^ΔARE/+ and wildtype littermates were sacrificed at four months of age after disease onset, followed by tissue collection Animal weights were recorded at regular intervals.
# (§1) Mid-dose antibiotics and low-dose antibiotics were 0.75× and 0.25× of the original 1× concentration, respectively.
# (§2) Immunofluorescence staining and imaging: Paraffin-embedded ileal tissues were section (5 μm) prior to deparaffinization, rehydration, and antigen retrieval using a citrate buffer (pH 6.0) for 20 minutes in a pressure cooker at 105° C., followed by a 20-minute cool down at room temperature (RT). Endogenous background signal was quenched by incubating tissue slides in 3% hydrogen peroxide for 10 minutes at RT. Tissue sections were blocked in staining buffer (3% bovine serum albumin/10% normal donkey serum) for 1 hour at RT prior to incubation with primary antibody overnight at RT. Antibodies used for immunofluorescence included those against LYZ1 (DAKO, 1:100, rabbit), MUC2 (Santa Cruz, 1:100, rabbit), MPO (DAKO, 1:100, rabbit), DCLK1 (Santa Cruz, 1:100, goat), FOXP3 (eBioscience, 1:50, rat), and GATA3 (Abcam, 1:50, rabbit). Sections were then incubated with AlexaFluor (AF)-555- or AF-647-conjugated secondary antibodies (Life Technologies, 1:500) for 1 hour at RT and Hoechst (1:10,000, Life Technologies) for 10 min at RT. For human tuft cell labeling, AF-488-conjugated pEGFR (Abcam, 1:100) and unconjugated COX2 (CST, 1:100, rabbit) were used. Slides were incubated with anti-rabbit AF-647-conjugated secondary antibody and stained with Hoechst. Imaging was performed using a Zeiss Axio Imager M2 microscope with Axiovision digital imaging system (Zeiss, Jena GmBH, Germany).
# Image quantification: To quantify human tuft cells, the number of crypt and villus structures were counted per field of view (FOV) for each subject (approximately 15-20 FOVs per sample). Tuft cell number, as identified by pEGFR and COX co-labeling, was manually counted per FOV in a blinded fashion. Quantification of tuft cell number per epithelial structure (crypt and villus) was generated for each subject and then stratified by disease state (“normal” or “Crohn's disease”) based on the pathology report. Results were analyzed by t-test using Prism GraphPad. For MUC2 quantification, manual demarcation of the epithelial villi was performed in each FOV and a nuclear mask was generated based on Hoechst staining.
# tuft cells = system: tuft cells
# Experimental: as §2
# [2] = system: ATOH1-independent tuft cells; settings: antibiotic-treated AtohKO animals; small intestine
# Source text: as §1
# cytokine levels = assay: Multiplex Luminex cytokine levels in short-term succinate-treated TNFΔARE/+ animals
# AtohKO enteroids = assay: IL-13 administration in enteroids; assay type: cell-based, mouse; settings: level similar to IL-13 in control enteroids
# Experimental: Enteroid Experiment: Ileal tissue was dissected and incubated in chelation buffer (3 mM EDTA/EGTA, 0.5 mM DTT, 1% P/S) at 4° C. for 45 minutes. The tissue was shaken in PBS and filtered through a 100 μm filter to isolate individual ileal crypts. The crypt suspension was centrifuged at 2.8×1000 RPM for 1½ minutes at 4° C. following which 10 μl of crypt pellet was resuspended in 300 μl of reduced growth factor Matrigel and embedded in a 24-well dish. Enteroids were cultured initially in IntestiCult Organoid Growth Medium (StemCell Technologies) supplemented with Primocin antimicrobial reagent (InvivoGen, 1:1000) for 4 days before being changed to Primocin-supplemented differentiation media. For ex vivo Cre-activation, Lrig1^CreERT2/+ Atoh1^fl/fl enteroids were treated overnight at 37° C. with either 1 μM 4-hydroxytamoxifen (Sigma-Aldrich) or vehicle (ethanol) in differentiation media. Enteroids were passaged the following day into 8-well chamber slides and, after 5 days, were fixed on ice using 4% PFA for immunofluorescence staining.
# Enteroid Immunofluorescence Staining: Fixed enteroids were permeabilized with Triton X-100 for 30 min and blocked with 1% normal donkey serum (PBS) for 30 min at RT. Enteroids were stained with primary antibodies against LYZ1 (DAKO, 1:100, rabbit), MUC2 (Santa Cruz, 1:100, rabbit), and DCLK1 (Santa Cruz, 1:100, goat). […]
# [3] = succinate-treated intestinal tissues
# [4] = short-term succinate vs untreated controls
compound,measurement,setting,value
"O=C(O)CCC(=O)O [succinate, succinic acid]",FOXP3+ T-regulatory cells,[1]; long-term (1 month) succinate treatment,significantly reduced
same,DCLK1+ tuft cells,[1]; succinate-treated,increased
same,stromal LYZ1 expression,[1]; succinate-treated,less stromal LYZ1 expression
same,"depth of inflammation (0-4), pathological scoring",[1]; succinate-treated vs control,decreased mucosal destruction
same,"extent of tissue injury (0-4), pathological scoring",[1]; succinate-treated vs control,decreased mucosal destruction
same,tuft cell expansion,"tuft cells; exogenous succinate administration, small intestine",induces tuft cell expansion
same,tuft cell expansion in the colon,"tuft cells; succinate administration, colon",did not induce tuft cell expansion
same,GATA3+ cells,tuft cells; [3],increased
same,major basic protein-positive eosinophils,tuft cells; [3],increased
same,tuft cell expansion,[2],restored tuft cell expansion to microbiome-replete levels
same,weight gain,"TNFΔARE/+ animals, succinate in drinking water",failed to gain as much weight as untreated controls
same,weight gain,wildtype animals treated with succinate,minimal weight gain
same,"expression of Idh3b, Idh3a, Sdha, Sdhd in the tuft cell lineage",TCA cycle genes; exogenous succinate treatment,induced
same,expression of genes such as Sdhc in the secretory lineage,TCA cycle genes; succinate treatment,significantly reduced
same,relative expression of Mdh2 and Sdhc in enterocytes,TCA cycle genes; untreated and succinate-treated enterocytes,constitutively high
same,IL-17A,cytokine levels; short-term (<1 week) succinate,significant increase
same,IL-17F,cytokine levels; short-term (<1 week) succinate,significant increase
same,IL-22 levels,cytokine levels; short-term (<1 week) succinate,increased levels
same,IL-23 levels,cytokine levels; short-term (<1 week) succinate,significantly reduced
same,IL-27 expression,cytokine levels; short-term (<1 week) succinate,induced
same,IL-5,cytokine levels; short-term succinate,increased
same,IL-9,cytokine levels; short-term succinate,increased
same,IL-10,cytokine levels; short-term succinate,increased
same,IL-4 levels,cytokine levels; [4],significantly increased
same,IL-13 levels,cytokine levels; [4],significantly increased
same,IL-25 levels,cytokine levels; [4],significantly increased
same,TNF-α levels,cytokine levels; succinate treatment,did not result in decreased TNF-α levels
IL-13: type 2 cytokine interleukin-13 administered to enteroids,tuft cell specification and expansion,AtohKO enteroids,induced tuft cell specification and expansion
